The source of these data is BindingDB's records for doi:10.1073/pnas.2111172118 (Baylor College of Medicine, 2021).

pKi: −log10 of the molar value.

In this experiment the target is Replicase polyprotein 1ab (Severe acute respiratory syndrome coronavirus 2, UniProt P0DTD1). As to the kind of experiment: Enzyme Inhibition Assay and Ki Values Determination.

From the text: Initial hydrolysis rates of fluorescent peptide were plotted as a function of compound concentrations and Ki values were obtained by fitting the data into the Morrison equation (42) with SE from triplicates.

For `COc1cc(-c2cccc3[nH]ncc23)cc(CO)c1OCC(=O)N1CCC(Oc2cccc(C(=O)N(C)C)c2)C1` (stereo unspecified) [CDD-1714], the pKi (commonly the negative decadic logarithm of the Ki, by convention in mol/L) is 7.62.
